Ki data for 2 compounds are collected here from ChEMBL document CHEMBL1821607, “N-Arylalkyl-2-azaadamantanes as cage-expanded polycarbocyclic sigma (σ) receptor ligands” (Bioorg Med Chem Lett, 2011).

For orientation: Ki means the equilibrium dissociation constant of an inhibitor or competing ligand from its target. A lower Ki goes with higher affinity.

In test [1] the target is Alpha-2B adrenergic receptor (Homo sapiens, UniProt P18089). The test can be described thus: Inhibition of alpha-2B adrenergic receptor by NIMH PDSP.
Chain of Alpha-2B adrenergic receptor (P18089 whole entry): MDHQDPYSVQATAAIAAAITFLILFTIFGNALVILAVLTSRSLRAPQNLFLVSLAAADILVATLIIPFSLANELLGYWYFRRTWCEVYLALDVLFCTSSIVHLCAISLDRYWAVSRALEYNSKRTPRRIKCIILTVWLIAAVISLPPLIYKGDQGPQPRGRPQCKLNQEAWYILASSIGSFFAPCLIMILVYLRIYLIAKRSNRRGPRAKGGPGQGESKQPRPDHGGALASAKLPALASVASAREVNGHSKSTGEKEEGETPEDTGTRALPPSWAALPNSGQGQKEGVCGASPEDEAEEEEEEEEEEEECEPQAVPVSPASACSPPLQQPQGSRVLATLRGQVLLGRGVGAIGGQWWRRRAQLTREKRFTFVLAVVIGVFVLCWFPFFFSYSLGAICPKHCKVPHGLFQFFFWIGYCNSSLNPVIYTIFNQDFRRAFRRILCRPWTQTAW
Test [2] concerns the target Alpha-1A adrenergic receptor (Homo sapiens, UniProt P35348). In words: Inhibition of alpha-1A adrenergic receptor by NIMH PDSP.
The target in the next test is D(1A) dopamine receptor (Homo sapiens, UniProt P21728). In words: Inhibition of D1 dopamine receptor by NIMH PDSP.
Chain of D(1A) dopamine receptor (P21728 whole entry): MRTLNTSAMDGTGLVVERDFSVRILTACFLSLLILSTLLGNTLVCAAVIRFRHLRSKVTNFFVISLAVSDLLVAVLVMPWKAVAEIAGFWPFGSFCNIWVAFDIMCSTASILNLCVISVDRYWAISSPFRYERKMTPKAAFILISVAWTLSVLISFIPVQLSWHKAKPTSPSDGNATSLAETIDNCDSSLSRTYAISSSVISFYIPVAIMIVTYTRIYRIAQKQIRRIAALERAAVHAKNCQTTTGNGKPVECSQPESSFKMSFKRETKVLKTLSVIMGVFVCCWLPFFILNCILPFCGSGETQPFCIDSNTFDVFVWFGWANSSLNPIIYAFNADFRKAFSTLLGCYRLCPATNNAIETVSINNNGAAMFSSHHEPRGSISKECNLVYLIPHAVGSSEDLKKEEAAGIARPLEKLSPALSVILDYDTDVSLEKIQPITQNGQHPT

Chain of Alpha-1A adrenergic receptor (P35348 whole entry): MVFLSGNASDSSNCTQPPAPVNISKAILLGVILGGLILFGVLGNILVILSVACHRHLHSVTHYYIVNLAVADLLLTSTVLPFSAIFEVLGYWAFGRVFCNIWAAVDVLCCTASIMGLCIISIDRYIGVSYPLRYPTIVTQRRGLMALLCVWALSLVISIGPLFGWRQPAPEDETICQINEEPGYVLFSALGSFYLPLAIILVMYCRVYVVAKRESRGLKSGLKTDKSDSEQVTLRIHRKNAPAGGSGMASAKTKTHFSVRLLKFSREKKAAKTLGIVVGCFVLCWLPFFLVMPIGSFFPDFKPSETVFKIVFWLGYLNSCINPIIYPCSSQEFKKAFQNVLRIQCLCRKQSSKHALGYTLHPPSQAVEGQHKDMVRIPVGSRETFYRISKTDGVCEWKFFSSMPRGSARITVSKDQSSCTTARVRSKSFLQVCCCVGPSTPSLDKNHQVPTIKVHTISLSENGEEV

In turn, `OC12CC3CC(CC(C3)N1Cc1ccccc1)C2` (racemic) returned a Ki in test [1] of more than 10 µM.
With `Fc1cccc(CN2C3CC4CC(C3)CC2C4)c1`, the Ki (in test [2]; on D(1A) dopamine receptor) was more than 10 µM each time.
